In patent US12606520B2, “Calpain-2 inhibitor compounds and methods of treatment” (WESTERN UNIVERSITY OF HEALTH SCIENCES, priority 2020, dated 2026):

Biological target: T1, calpain-1 (Rattus norvegicus, UniProt P97571)
T1 construct: from tissue; host or cells: rat brain after TBI
T1 sequence (P97571 1-713): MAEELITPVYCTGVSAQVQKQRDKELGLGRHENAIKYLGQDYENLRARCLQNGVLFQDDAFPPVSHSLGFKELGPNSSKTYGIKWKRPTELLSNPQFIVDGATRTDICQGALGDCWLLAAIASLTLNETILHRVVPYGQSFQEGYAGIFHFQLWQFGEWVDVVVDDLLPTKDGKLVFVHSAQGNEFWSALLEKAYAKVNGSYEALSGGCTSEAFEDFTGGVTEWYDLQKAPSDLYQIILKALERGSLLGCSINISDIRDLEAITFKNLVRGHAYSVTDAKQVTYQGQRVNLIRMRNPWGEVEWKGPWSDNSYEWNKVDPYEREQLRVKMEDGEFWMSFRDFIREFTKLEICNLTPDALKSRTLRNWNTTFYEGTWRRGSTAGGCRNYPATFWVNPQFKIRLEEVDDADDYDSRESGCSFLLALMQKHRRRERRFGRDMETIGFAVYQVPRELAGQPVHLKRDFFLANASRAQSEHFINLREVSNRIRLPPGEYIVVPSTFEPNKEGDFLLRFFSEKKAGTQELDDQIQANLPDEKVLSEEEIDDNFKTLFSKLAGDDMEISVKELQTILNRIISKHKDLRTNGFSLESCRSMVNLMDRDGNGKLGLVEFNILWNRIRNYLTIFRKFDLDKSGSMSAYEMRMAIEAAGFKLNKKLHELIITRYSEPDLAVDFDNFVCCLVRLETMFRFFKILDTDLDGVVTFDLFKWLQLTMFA
T1 sequence (Q64537 1-270 partner): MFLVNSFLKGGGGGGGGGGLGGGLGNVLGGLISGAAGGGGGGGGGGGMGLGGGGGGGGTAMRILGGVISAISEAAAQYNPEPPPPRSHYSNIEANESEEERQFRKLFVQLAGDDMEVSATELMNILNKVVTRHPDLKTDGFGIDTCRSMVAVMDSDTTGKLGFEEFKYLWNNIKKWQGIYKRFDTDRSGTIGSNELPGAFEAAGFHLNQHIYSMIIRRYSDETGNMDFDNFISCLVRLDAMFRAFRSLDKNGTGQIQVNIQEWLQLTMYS
Assay: Calpain-1 activity in brain after TBI in rats
Assay type: in vivo
Conditions: 1 mg/kg i.p. at 1 h and 8 h after TBI, 24 h after TBI
Experimental: We also performed the same model of TBI in male and female mice and in male and female rats. In all cases, NA184 was injected i.p. at 1 mg/kg. For the rat experiments, NA184 was injected twice at 1 h and 8 h after TBI. Animals were sacrificed 24 h after TBI and calpain activity was assayed in brain and cell death was analyzed in cortex. […] In addition, there was a highly significant correlation between calpain-2 activity and cell death in rats (FIG. 23). R^2 was 0.61 and p<0.005.

CCC(NC(=O)[C@H](CC(C)C)NC(=O)NCc1ccccc1)C(=O)C(=O)NCc1cccc(Cl)c1OC (stereo partly drawn) [NA184, (2S)-2-(3-benzylureido)-N-(1-((3-chloro-2-methoxybenzyl)amino)-1,2-dioxopentan-3-yl)-4-methylpentanamide]
Calpain-1 inhibition in brain, male and female rats: not calpain-1
